According to patent publication US9814714B2, “Kinase modulation, and indications therefor” (Plexxikon Inc., priority 2015, dated 2017):
pEC50, pIC50: −log10 of the molar value. Where two headings read alike, the source gives them in different places.

Tests used:
[1] = system: pERK in IPC-298 cells (NRAS^Q61L); test: Phospho-ERK AlphaScreen assay, pERK activation in IPC-298; format: cell-based, human; settings: for pEC50: Homo sapiens
Procedure: (§1) Phospho-ERK AlphaScreen® assay: The degree of ERK phosphorylation was determined using an AlphaScreen® assay where an increase in ERK1/2 phosphorylation at Thr202/Tyr204 brought the donor and acceptor AlphaScreen® beads into close proximity, generating a signal for quantification. To determine the effects of compound treatment on phosphorylation of ERK1/2, cells were plated in a 96-well plate and treated with an 8-point titration of compound for one hour at 37° C. before lysis. To detect pERK, cell lysates were incubated with streptavidin-coated AlphaScreen® donor beads, anti-mouse IgG AlphaScreen® acceptor beads, a biotinylated anti-ERK1/2 rabbit antibody, and a mouse antibody that recognizes ERK1/2 only when it is phosphorylated on Thr202 and Tyr204. The biotinylated ERK1/2 antibody binds to both the streptavidin-coated AlphaScreen® donor beads and to ERK1/2 (regardless of its phosphorylation state), and the phospho-ERK1/2 antibody binds to the acceptor beads and to ERK1/2 that is phosphorylated at Thr202/Tyr204. An increase in ERK1/2 phosphorylation at Thr202/Tyr204 brings the donor and acceptor AlphaScreen® beads into close proximity, generating a signal that can be quantified on an EnVision reader (Perkin Elmer).
(§2) Using AlphaScreen® technology, the ability of Formula I to affect the phosphorylation of ERK and MEK in the cells was measured quantitatively. Following treatment with compound, the cells were lysed, and a sample of the lysate was transferred to an assay plate. The lysate was mixed with antibodies directed against total ERK/MEK, antibodies that recognize specific phosphorylation sites on ERK/MEK, AlphaScreen® anti-mouse IgG Acceptor beads, and Streptavidin Donor beads. Upon excitation of the donor beads with laser light at 680 nm, singlet oxygen was produced. This singlet oxygen was rapidly quenched, unless the AlphaScreen® Acceptor beads were in close proximity, in which case a proximity signal can be measured at 580 nm. In the presence of phosphorylated ERK/MEK, there is a very strong proximity signal.
(§3) 1. One day before the assay, 50,000 cells were plated in each well of a 96-well tissue-culture-treated plate (Corning #3610) in a 50 μL volume. Cells were incubated at 37° C. overnight.
(§4) 2. Compounds were diluted in DMSO to 500× final concentration. Each compound was plated as an 8-point titration, using 1:3 dilutions in DMSO. The maximum concentration was about 5 mM.
(§5) 3. 1 μl of compound was added to each well of a 96-well polypropylene plate (Corning #3363). For A375, COLO829, SK-MEL-3, HCT116, and HT-29, the high control was DMSO, and the low control was 10 μM PLX4720 (CAS No. 918505-84-7). For B9 and IPC-298, the high control was 3.33 μM PLX4720, and the low control was DMSO. 4. 249 μL growth media was added to compounds, diluting them 250-fold. 5. […] The compound was incubated with the cells at 37° C. for one hour. 6. The media was aspirated, and the cells were lysed in 50 μL of ice-cold 1× Cell Lysis buffer. The plates were incubated on ice for 5 minutes to allow complete lysis of the cells. 7. A mixture of biotinylated donor antibody, acceptor antibody, and anti-mouse IgG AlphaScreen® acceptor beads in 1× AlphaLISA immunoassay buffer was prepared. 8. 5 μL of lysate was transferred to a 384-well assay plate (Perkin Elmer #6005359). 5 μL of the antibody and acceptor bead mixture was added. The plates were spinned.

[2] = system: pERK in A375 cells (BRAF^V600E, homozygous); test: Phospho-ERK AlphaScreen assay, pERK inhibition in A375; format: cell-based; settings: Homo sapiens, A-375, 1 h, read-out: pERK inhibition IC50 A375
Procedure: as §1, §2, §3, §4, §5

A375 cells = test: Growth inhibition assay (CellTiter-Glo), A375; format: cell-based; settings: Homo sapiens
Procedure: Growth inhibition assay: Cells were plated into a 96-well plate at a density of 3000 cells per well and allowed to adhere overnight. Compounds were dissolved in DMSO, diluted 3-fold to create an 8-point titration and added to cells. After a 72-hour incubation, cell viability was examined using CellTiter-Glo® (Promega).
In order to determine the effects of Formula I on proliferation, a growth assay was established using melanoma cells (A375 and COLO829) and colorectal carcinoma cells (COLO205, HT-29) which each express the BRAFV600E mutation. To show selectivity over wild-type BRAF, several BRAF wild-type cell lines (K562, NOMO-1, MV-4-11 and ML-2) were also examined in the growth assay. The growth assay implemented the Promega CellTiter-Glo Luminescent Cell viability assay, which gives a luminescent readout that is proportional to the amount of ATP present in a cell sample. As ATP levels directly correlate with the number of viable cells, the luminescent signal can be used to determine the potency of Formula I to block the proliferation of the cell lines of interest.
1. 3,000 cells were plated in each well for cell lines A375, COLO205, COLO829, HT-29, and SK-MEL-3. 25,000 cells were plated in each well for cell lines K562, ML-2, MV-4-11, and
NOMO-1 of a 96-well tissue-culture-treated plate (Corning #3610) in a 50 μL volume. Cells were incubated overnight at 37° C.
2. Each test compound was plated as an 8-point titration, using 1:3 dilutions in DMSO. The maximum concentration was about 5 mM. Dilute DMSO and test compound of Formula I 1:250 in growth media.
3. 50 μL of the diluted compound was transferred into 50 μL cells, for a 500-fold final compound dilution (maximum concentration is typically 10 μM and DMSO concentration is 0.2%). The cells were incubated with DMSO/compound for 3 days at 37° C. in 5% CO2.
4. Cell Titer-Glo Luminescent Assay Reagent was brought to room temperature and reconstituted as directed in the product manual. The cell cultures were also brought to room temperature for about 20-30 minutes. […] Luminescence was measured on a Tecan Safire plate reader. […]

[3] = IPC-298, read-out: pERK activation Mean EC50, IPC-298
[4] = IPC-298, NRAS^Q61L, concentration increasing pERK to 50% compared to positive control 10 μM PLX4720, read-out: pERK activation EC50 IPC298
[5] = A375, BRAF^V600E homozygous, one hour treatment
[6] = A-375, 72-hour incubation, read-out: In vitro growth inhibition IC50, A375

| SMILES | pEC50 [1, 3] | pEC50 [1, 4] | pIC50 [2] | pIC50 (A375 cells; A-375, 72 h, Table 4, melanoma, BRAF V600E, RAS WT, 3 days, read-out: Growth IC50 A375) | MAPK signaling / pERK increase in IPC-298 (in words) ([1]; FIG. 1(B), NRAS^Q61L) | pIC50 [2, 5] | pIC50 (A375 cells; [6]) |
| --- | --- | --- | --- | --- | --- | --- | --- |
| O=C(c1c(F)ccc(NS(=O)(=O)N2CC[C@@H](F)C2)c1F)c1c[nH]c2ncc(-c3cnc(C4CC4)nc3)cc12 [Formula I, (3R)—N-[3-[5-(2-cyclopropylpyrimidin-5-yl)-1H-pyrrolo[2,3-b]pyridine-3-carbonyl]-2,4-difluorophenyl]-3-fluoropyrrolidine-1-sulfonamide] | 5.00 | < 3.70 | 7.80 | 7.30 |  |  |  |
| CCN(C)S(=O)(=O)Nc1ccc(F)c(C(=O)c2c[nH]c3ncc(-c4cnc(C5CC5)nc4)cc23)c1F [Formula II, 5-(2-cyclopropylpyrimidin-5-yl)-3-[3-[[ethyl(methyl)sulfamoyl]amino]-2,6-difluoro-benzoyl]-1H-pyrrolo[2,3-b]pyridine] |  | < 3.70 |  |  | negligible pERK increase | 8.46 | 6.77 |
| CCCS(=O)(=O)Nc1ccc(F)c(C(=O)c2c[nH]c3ncc(-c4ccc(Cl)cc4)cc23)c1F [Vemurafenib, vemurafenib, reference compound] | 6.08 | 6.27 |  |  |  | 7.49 | 6.48 |
